# Where two headings read alike, the source gives them in different places.
# Columns and labels:
# alpha-glucosidase = target: T1, alpha-glucosidase (Saccharomyces cerevisiae, UniProt P53341); test: biochemical; conditions: for Binding Affinity Exp: ΔGexp calculated from IC50, T=300 K
# T1 construct: purchased Sigma-Aldrich Co. (Saint Louis, MO, USA)
# Excerpt: The conditions followed that of our previous report with small modifications.
# HepG2 cells = conditions: read-out: hepatoprotective activity EC50; cited from earlier work
# [1] = isolated compounds, read-out: Alpha-glucosidase inhibition IC50 (isolated compounds)
# T1 sequence (P53341 whole entry): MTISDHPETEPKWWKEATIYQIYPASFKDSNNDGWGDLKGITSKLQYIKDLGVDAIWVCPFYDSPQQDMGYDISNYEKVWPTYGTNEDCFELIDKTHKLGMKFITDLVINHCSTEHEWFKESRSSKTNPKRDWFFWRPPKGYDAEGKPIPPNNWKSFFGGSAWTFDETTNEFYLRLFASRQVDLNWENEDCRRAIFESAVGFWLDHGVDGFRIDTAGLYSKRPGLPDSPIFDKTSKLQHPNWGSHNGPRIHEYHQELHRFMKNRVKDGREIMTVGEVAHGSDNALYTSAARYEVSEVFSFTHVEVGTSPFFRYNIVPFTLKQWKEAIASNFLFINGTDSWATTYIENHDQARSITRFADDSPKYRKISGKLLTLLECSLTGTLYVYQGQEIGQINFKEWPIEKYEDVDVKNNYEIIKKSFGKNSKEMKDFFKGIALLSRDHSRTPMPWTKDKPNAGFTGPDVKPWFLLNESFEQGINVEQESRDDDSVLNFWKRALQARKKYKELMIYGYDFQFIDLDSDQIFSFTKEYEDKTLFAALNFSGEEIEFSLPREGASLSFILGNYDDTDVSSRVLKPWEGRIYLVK
IC50 (alpha-glucosidase; [1]),Structure (SMILES),Binding Affinity Exp (alpha-glucosidase),EC50 (HepG2 cells),IC50 (alpha-glucosidase)
250 ± 11.4 µM,"COc1cc(/C=C/C=O)ccc1O [PA4, coniferyl aldehyde]",,,
> 300 µM,"COc1c(-c2ccc(O)c(O)c2)oc2cc(O)cc(O)c2c1=O [PA1, 3-O-methylquercetin]",,,
> 300 µM,"O=Cc1ccc(CO)o1 [PA7, 5-hydroxymethylfurfural]",,,

# The remaining lines, values behind:
Structure (SMILES),IC50 (alpha-glucosidase; [1]),Binding Affinity Exp (alpha-glucosidase),EC50 (HepG2 cells),IC50 (alpha-glucosidase)
"CC[C@H](CC[C@@H](C)[C@H]1CC[C@H]2[C@@H]3CC=C4C[C@@H](O[C@@H]5O[C@H](CO)[C@@H](O)[C@H](O)[C@H]5O)CC[C@]4(C)[C@H]3CC[C@]12C)C(C)C [DL2, daucosterol]",> 300 µM,,,
"CC[C@H](CC[C@@H](C)[C@H]1CC[C@H]2[C@@H]3CC(O)C4=CC(=O)CC[C@]4(C)[C@H]3CC[C@]12C)C(C)C (stereo partly drawn) [DL3, 6-hydroxystigmast-4-en-3-one]",177 ± 3.6 µM,-5.1 kcal/mol,,
"COc1cc(/C=C/C(=O)NC(=O)c2ccc(O)c(OC)c2)ccc1O [PA6, tribulusimide D]",76.2 ± 2.9 µM,-5.7 kcal/mol,13.5 µM,
"CC(C)(C)c1ccc(C(=O)c2ccc(C(C)(C)C)cc2C(C)(C)C)c(C(C)(C)C)c1 [DL4, 2,2′,4,4′-tetra-tert-butylbenzophenone]",> 300 µM,,,
"O=c1cc(-c2ccc(O)c(O)c2)oc2cc(O)cc(O)c12 [DL10, luteolin]",67.1 ± 1.2 µM,,,
"Cc1cc(O)c2c(c1)C(=O)c1cccc(O)c1C2=O [PA5, chrysophanol]",,-5.5 kcal/mol,,98.2 ± 2.2 µM
"CC1(C)C[C@H](O)C[C@@](C)(O)/C(O)=C\C1=O [DL5, chakyunglupulin B]",82.2 ± 2.2 µM,-5.6 kcal/mol,,
"O=c1c(O[C@@H]2O[C@H](CO)[C@@H](O)[C@H](O)[C@H]2O)c(-c2ccc(O)c(O)c2)oc2cc(O)cc(O)c12 [DL12, isoquercetin]",,,,99.8 ± 1.2 µM
"O=c1c(-c2ccc(O)cc2)coc2cc(O)ccc12 [DL6, daidzein]",,,,66.9 ± 1.7 µM
"COc1ccc(-c2oc3cc(O)c(OC)c(O)c3c(=O)c2OC)cc1OC [DL9, bonanzin]",> 300 µM,,,
"COc1cc(-c2oc3cc(O)c(OC)c(O)c3c(=O)c2OC)ccc1O [DL8, jaceidin]",282 ± 9.2 µM,-4.9 kcal/mol,,
"CC[C@H](CC[C@@H](C)[C@H]1CC[C@H]2[C@@H]3CC=C4C[C@@H](O)CC[C@]4(C)[C@H]3CC[C@]12C)C(C)C [DL1, β-sitosterol]",> 300 µM,,,
